Here are results for 2 molecules from US9346797B1, “2-amino 6-(difluoromethyl)-5,5-difluoro-6-phenyl-3,4,5,6-tetrahydropyridines as BACE1 inhibitors” (H. Lundbeck A/S, priority 2014, dated 2016).

In one data set the target is human BACE1 (Homo sapiens (Human), UniProt P56817). The experiment in a line: BACE1 binding assay (SPA-based radioligand binding). Particulars: pH 4.5, Ki calculated from IC50. As for the experimental part:
The binding assay was performed as SPA-based assay using a biotinylated form of human BACE1 recombinantly expressed and subsequently purified from Freestyle HEK293 cells. The binding assay was run in a 50 mM sodium acetate buffer, pH 4.5 containing 50 mM NaCl and 0.03% Tween-20 in white clear bottom 384 plates (Corning #3653). 10 nM (final concentration) radioligand ([^3H]—N-((1S,2R)-1-benzyl-3-cyclopropylamino-2-hydroxy-propyl)-5-(methanesulfonyl-methyl-amino)-N—((R)-1-phenyl-ethyl)-isophthalamide) (TRQ11569 purchased from GE Healthcare) was mixed with test compound at a given concentration, 6 nM (final concentration) human BACE1 and 25 μg Streptavidin coated PVT core SPA beads (RPNQ0007, GE Healthcare Life Sciences) in a total volume of 40 μl. Several concentrations of each test compound were tested in the assay for IC50 determination. The plates were incubated for one hour at room temperature and counted in a Wallac Trilux counter. Total and non-specific binding were determined using buffer and 1 μM (final concentration) of the high affinity BACE1 reference inhibitor (S)-6-[3-chloro-5-(5-prop-1-ynyl-pyridin-3-yl)-thiophen-2-yl]-2-imino-3,6-dimethyl-tetrahydro-pyrimidin-4-one, respectively. For each test compound, a IC50 value (the concentration mediating 50% inhibition of the specific binding of the radioligand) was determined from concentration-response curve and used to calculate the Ki from the equation Ki=IC50/(1+L/Kd), where L and Kd are the final concentration of the radioligand used in the assay and the dissociation constant of the radioligand, respectively. The Kd of the radioligand was determined from saturation binding experiments.

A further data set concerns P-gp (MDR1). The experiment in a line: MDCK-MDR1 assay (permeability/efflux). It is filed as in vitro ADME. Conditions: dog, Papp BA/Papp AB, 60-minute incubation, Pgp substrate when ≧2. As to the method: The permeability of the test compounds was assessed in MDCK-MDR1 cells that were cultured to confluency (4-6 days) in a 96 transwell plate. Test compounds were diluted with the transport buffer (HBSS+1% BSA) to a concentration of 0.5 μM and applied to the apical or basolateral side of the cell monolayer. Permeation of the test compounds from A to B direction or B to A direction was determined in triplicate over a 60-minute incubation time at 37° C. and 5% CO2 with a relative humidity of 95%. Test compounds were quantified by LC-MS/MS analysis based on the peaks area ratios of analyte/IS in both the receiver and donor wells of the transwell plate.
The apparent permeability coefficient Papp (cm/s) was calculated using the equation: Papp=(dCr/dt)×Vr/(A×C0)
Where dCr/dt is the cumulative concentration of compound in the receiver chamber as a function of time (μM/s); Vr is the solution volume in the receiver chamber (0.05 mL on the apical side; 0.25 mL on the basolateral side); A is the surface area for the transport, i.e. 0.0804 cm^2 for the area of the monolayer; CO is the initial concentration in the donor chamber (μM).
Compounds are classified Pgp substrates when efflux ratio (Papp BA/Papp AB) is ≧2.

A further data set deals with Aβ40. The experiment in a line: Assessment of Aβ levels in rat brain and plasma following BACE1 inhibition (Aβ40 ELISA). It is filed as in vivo. Conditions: 3 hours post dose, vs vehicle. As for the experimental part: Young adult Male Sprague Dawley rats of approximately 250 g weight were purchased from Charles River and received 0-30 mg/kg of vehicle (10% HP betaCD+1M MeSO4, pH 2.5) or test compounds (dissolved in vehicle) only by oral gavage (p.o). The compounds are dosed at a volume of 5 ml/kg. Cohorts of 5-10 animals were established for each treatment condition.
At T=180 minutes after initial dosing the animals were stunned and decapitated with a guillotine. Trunk-blood was sampled in EDTA coated tubes after decapitation of the animal. The blood was centrifuged at 2200 G at 4° C. for 15 minutes and the plasma was collected and frozen at −80° C. The blood was aliquoted for Aβ ELISA and DMPK analysis Immediately following sacrifice, the brain was extracted and split into 2 halves. The right hemibrains were snap frozen on dry ice and stored at −80° C. The left half was dissected; with the front forebrain taken for Aβ ELISA and the remainder used for DMPK analysis. These samples were also snap frozen on dry ice and stored at −80° C. until use for analysis.
The cortex samples were thawed slightly on wet ice before they were homogenized with a small volume dispersing instrument (T10 basic ULTRA-TURRAX®) which was set at speed 5 for approximately 5-7 sec. The tissue was processed in a 10 times volume of the weight, for example 100 mg of tissue was homogenized in 1000 μL of Homogenization buffer. Homogenization buffer: 50 ml Milli Q water+50 nM NaCl+0.2% Diethylamin (DEA)+1 tablet of Complete Protease inhibitor cocktail+1 nM 4-(2-aminoethyl) benzenesulfonyl fluoride hydrochloride irreversible serine protease inhibitor (AEBSF).
After homogenization 450 μL aliquots of the samples are collected into a 1.5 ml Eppendorf tube and placed on wet ice, 0.5% NP-40 (50 ul) was added to all samples and then they were incubated on ice for 30 min. After which all samples were sonicated using an Ultrasonic homogenizer with 20 kHz homogeneous sound (SONOPLUS HD2070, Bandelin Electronic) 10 pulse set at 12-13% power to extract all the Aβ species. The samples were then centrifuged (Ole Dich 157 MPRF Micro centrifuge) at 20000 G for 20 minutes at 4° C. After centrifugation 285 μL of the supernatant was pipetted into 600 μL microtubes tubes and neutralized with 15 μL of 1M Tris-HCL buffer.
WAKO 294-62501 Human/Rat Abeta amyloid (40) kit was used for all ELISA analyses. 30 μL plasma samples or 30 μL of the cortex supernatants generated as described above were placed in 600 μL microtubes tubes on wet ice. To this 30 μL of 8M Urea (AppliChem A1049, 9025) are added to generate a 2-fold dilution. Both plasma and cortex supernatants are incubated on ice for 30 min. Standard rows were prepared from the standard peptide stock provided in the kit and standard diluent containing 1.6M Urea (200 μL 8M Urea+800 μL of standard diluent) and 0.8M Urea (400 μL 8M Urea+3600 μL Standard diluent). A serial 2-fold dilution of Aβ40 from 100 pmol/ml to 0 pmol/L was prepared for the assay.
After incubation with urea, all samples were further diluted by addition of 5 times standard diluent from the Kit. This was done by adding 240 μL Standard Diluent to 60 μL sample/urea mixture, which was then mixed well. 100 μL of each diluted sample was pipetted into designated wells of the ELISA plate in duplicates. The plate was then covered and incubated overnight at 4° C. The following day, the ELISA kit was brought to room temperature before use. The incubated plate was washed 5 times with the 20× washing solution diluted in Milli Q water. 100 μL HRP-conjugate was applied to each well, and the plate was covered and incubates at 4° C. for 1 hr. The wash was repeated again for 5 times. 100 μL 3,3′,5,5′-Tetramethylbenzidine (TMB) solution was applied to each well and the plate was covered and incubated in the dark at room temperature for 30 minutes. […]
A general note: In an ELISA, binding on a coated surface is turned into a signal by an enzyme label.

pKi: −log10 of the molar value.

Sequence of human BACE1 (P56817 46-501): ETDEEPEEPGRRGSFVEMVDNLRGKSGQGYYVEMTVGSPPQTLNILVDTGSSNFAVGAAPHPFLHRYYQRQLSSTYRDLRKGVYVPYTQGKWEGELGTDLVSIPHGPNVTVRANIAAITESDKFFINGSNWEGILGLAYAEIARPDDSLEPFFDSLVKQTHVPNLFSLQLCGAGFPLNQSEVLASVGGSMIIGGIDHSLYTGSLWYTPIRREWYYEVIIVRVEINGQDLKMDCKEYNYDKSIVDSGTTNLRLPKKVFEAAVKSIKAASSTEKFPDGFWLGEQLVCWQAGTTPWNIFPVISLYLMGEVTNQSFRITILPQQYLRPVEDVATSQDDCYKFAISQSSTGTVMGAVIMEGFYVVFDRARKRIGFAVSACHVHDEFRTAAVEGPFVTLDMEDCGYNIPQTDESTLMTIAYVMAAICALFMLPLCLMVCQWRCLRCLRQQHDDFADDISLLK

What is called pKi is the negative decadic logarithm of the Ki, by convention in mol/L. Usually efflux ratio stands for the permeability from basolateral to apical divided by that in the opposite direction, in the common usage. Take `COc1cnc(C(=O)Nc2ccc(F)c([C@@]3(C(F)F)N=C(N)CCC3(F)F)c2)cn1` [Compound 3, (S)—N-(3-(6-amino-2-(difluoromethyl)-3,3-difluoro-2,3,4,5-tetrahydropyridin-2-yl)-4-fluorophenyl)-5-methoxypyrazine-2-carboxamide]: the pKi on human BACE1 was 8.07. In addition, the efflux ratio at 60 min, 0.5 μM in the data set with P-gp (MDR1) came to 1.22. Further, the Aβ40 reduction in the data set with Aβ40 (brain, 10 mg/kg p.o.) is 24%; with Aβ40 (brain, 30 mg/kg p.o.), 38%; with Aβ40 (plasma, 10 mg/kg p.o.) it was 39%; in the data set with Aβ40 (plasma, 30 mg/kg p.o.) it was 42%.
Take `COc1ccc(C(=O)Nc2ccc(F)c([C@@]3(C(F)F)N=C(N)CCC3(F)F)c2)nc1` [Compound 5, (S)—N-(3-(6-amino-2-(difluoromethyl)-3,3-difluoro-2,3,4,5-tetrahydropyridin-2-yl)-4-fluorophenyl)-5-methoxypicolinamide]: at human BACE1, the pKi was 8.17. Further, the efflux ratio at 60 min, 0.5 μM in the data set with P-gp (MDR1) turned out to be 0.99. Also, the Aβ40 reduction worked out at 5% with Aβ40 (brain, 10 mg/kg p.o.); 36% with Aβ40 (brain, 30 mg/kg p.o.); 40% in the data set on Aβ40 (plasma, 10 mg/kg p.o.); 49% in the data set on Aβ40 (plasma, 30 mg/kg p.o.).
